The target in this test is Histamine H4 receptor (Homo sapiens, UniProt Q9H3N8). Briefly: Radioligand Binding Assay. Conditions: pH 7.5; 25 °C. The protocol: The Ki values were calculated based on an experimentally determined appropriate Kd value according to Cheng and Prusoff.

Structures are written as SMILES.

Chain of Histamine H4 receptor (Q9H3N8 whole entry): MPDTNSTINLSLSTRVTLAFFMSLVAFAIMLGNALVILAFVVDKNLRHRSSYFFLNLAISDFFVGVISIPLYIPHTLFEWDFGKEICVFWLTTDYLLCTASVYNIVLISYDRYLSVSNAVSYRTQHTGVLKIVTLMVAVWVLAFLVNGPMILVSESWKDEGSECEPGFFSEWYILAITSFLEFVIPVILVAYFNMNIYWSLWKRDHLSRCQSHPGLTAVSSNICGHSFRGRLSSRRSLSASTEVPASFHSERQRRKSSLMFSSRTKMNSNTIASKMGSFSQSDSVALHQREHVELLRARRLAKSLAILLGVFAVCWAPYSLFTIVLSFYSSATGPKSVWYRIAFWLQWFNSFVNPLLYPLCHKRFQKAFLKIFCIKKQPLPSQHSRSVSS

What is called Ki is a measure of affinity in units of concentration, obtained from inhibition or displacement. `CN1CCN(CCCOc2ccc(-c3nc4cc(Cl)ccc4[nH]3)cc2)CC1` [5-chloro-2-{4-[3-(4-methylpiperazin-1-yl)propoxy]phenyl}-1H-1,3-benzodiazole] registered an inhibitory constant (Ki) of 124 nM.

These data come from BindingDB's records for doi:10.1016/j.bmcl.2006.08.117 (Johnson & Johnson Pharmaceutical, 2006).
